For the experiment, the system named is T1, Lcc120-3 (Mic-mg-MCO120-3).
T1 construct: 98 residues Micromonospora sp; MP36 MCO N-terminus (parent WP_148798198.1) + 387-residue metagenomic core + 54 residues MP36 MCO C-terminus; MBP deleted; E. coli BL21(DE3)
Briefly: spectrophotometric oxidation at […] nm, Lineweaver-Burk plot. The note with it: 50 mM potassium phosphate pH 7.0, 30 °C, purified enzyme without MBP; read-out: Lcc120-3 (Mic-mg-MCO) / Km (mM)/Vmax (U/mg protein)/kcat (s^-1). Type of experiment: biochemical.

Turning to `COc1cccc(OC)c1O` [DMP, 2,6-dimethoxyphenol], the Km worked out at 10.5 mM.

For the origin of these results see article PMC8214651, “Construction and characterization of a functional chimeric laccase from metagenomes suitable as a biocatalyst” (AMB Express, 2021).
